For assay [1], the target named is Cholinesterase (Equus caballus, UniProt P81908).
Description: Inhibition of horse serum butyrylcholinesterase using butylthiocholine as substrate incubated for 15 mins followed by substrate addition measured for 2 mins by Ellman's method
Assay [2] deals with Acetylcholinesterase (Homo sapiens) (UniProt P22303). Kind of assay: Ratio of compound activity to tacrine activity for inhibition of acetylcholinesterase (unknown origin)-induced amyloid beta(1 to 42) aggregation.
Assay [3] concerns the target Acetylcholinesterase (Electrophorus electricus, UniProt O42275).
Description: Inhibition of electric eel acetylcholinesterase using acetylthiocholine as substrate incubated for 15 mins followed by substrate addition measured for 2 mins by Ellman's method
Assay [4] concerns the target Acetylcholinesterase (Electrophorus electricus) (UniProt O42275). Kind of assay: Inhibition of electric eel acetylcholinesterase using acetylthiocholine as substrate up to 100 uM incubated for 15 mins followed by substrate addition measured for 2 mins by Ellman's method relative to control. Background: Ellman's reagent forms a yellow product with free thiols.
Assay [5] deals with Acetylcholinesterase (Homo sapiens) (UniProt P22303). Kind of assay: Ratio of compound activity to curcumin activity for inhibition of acetylcholinesterase (unknown origin)-induced amyloid beta(1 to 42) aggregation.
Assay [6] in a line: cells. The conditions noted are these: Homo sapiens, SH-SY5Y, 48 h.
Description: Cytotoxicity against human SH-SY5Y cells assessed as cell viability after 48 hrs by MTT assay

The source of these data is ChEMBL document CHEMBL2375339, “Synthesis and evaluation of 7,8-dehydrorutaecarpine derivatives as potential multifunctional agents for the treatment of Alzheimer's disease” (Eur J Med Chem, 2013).

By pIC50 is commonly meant −log10 of the IC50, conventionally taken in molar units. The term inhibition denotes the change of the read-out against control, counted positive when it falls. High values mean strong suppression, low ones little suppression.

pIC50: −log10 of the molar value.

Chain of Acetylcholinesterase (Homo sapiens) (P22303 whole entry): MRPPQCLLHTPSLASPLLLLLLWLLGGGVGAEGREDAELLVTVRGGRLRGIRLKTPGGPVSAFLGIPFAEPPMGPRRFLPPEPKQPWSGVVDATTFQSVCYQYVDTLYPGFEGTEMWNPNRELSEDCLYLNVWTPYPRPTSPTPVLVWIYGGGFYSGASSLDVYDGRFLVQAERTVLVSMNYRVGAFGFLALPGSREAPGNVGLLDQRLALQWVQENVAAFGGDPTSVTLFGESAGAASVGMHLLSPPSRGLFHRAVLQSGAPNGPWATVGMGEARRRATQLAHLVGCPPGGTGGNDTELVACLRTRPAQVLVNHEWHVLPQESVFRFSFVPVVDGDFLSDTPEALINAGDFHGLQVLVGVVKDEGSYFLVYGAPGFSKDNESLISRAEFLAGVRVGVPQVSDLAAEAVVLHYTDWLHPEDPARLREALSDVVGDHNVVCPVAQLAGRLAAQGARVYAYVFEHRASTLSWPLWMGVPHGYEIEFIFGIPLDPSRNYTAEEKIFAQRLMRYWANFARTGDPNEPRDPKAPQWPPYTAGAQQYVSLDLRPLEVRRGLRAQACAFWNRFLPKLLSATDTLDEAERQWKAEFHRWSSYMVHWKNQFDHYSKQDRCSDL
Chain of Acetylcholinesterase (O42275 whole entry): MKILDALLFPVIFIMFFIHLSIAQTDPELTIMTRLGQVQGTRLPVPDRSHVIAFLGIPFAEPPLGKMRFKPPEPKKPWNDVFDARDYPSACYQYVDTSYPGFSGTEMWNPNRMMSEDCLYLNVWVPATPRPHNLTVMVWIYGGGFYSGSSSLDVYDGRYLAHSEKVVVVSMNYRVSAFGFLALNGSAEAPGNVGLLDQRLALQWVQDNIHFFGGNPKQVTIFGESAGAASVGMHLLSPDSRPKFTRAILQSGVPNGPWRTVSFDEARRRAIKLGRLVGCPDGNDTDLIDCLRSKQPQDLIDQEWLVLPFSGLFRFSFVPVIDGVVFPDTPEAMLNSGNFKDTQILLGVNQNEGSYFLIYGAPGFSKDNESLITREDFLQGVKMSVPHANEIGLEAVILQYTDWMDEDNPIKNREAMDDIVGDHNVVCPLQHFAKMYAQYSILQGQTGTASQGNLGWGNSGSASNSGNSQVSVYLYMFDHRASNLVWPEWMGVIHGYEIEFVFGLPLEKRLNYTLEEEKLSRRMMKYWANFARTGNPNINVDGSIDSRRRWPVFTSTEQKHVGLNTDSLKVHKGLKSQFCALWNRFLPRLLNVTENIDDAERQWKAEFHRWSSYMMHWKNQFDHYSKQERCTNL
Chain of Acetylcholinesterase (Electrophorus electricus) (O42275 24-633 limits assumed): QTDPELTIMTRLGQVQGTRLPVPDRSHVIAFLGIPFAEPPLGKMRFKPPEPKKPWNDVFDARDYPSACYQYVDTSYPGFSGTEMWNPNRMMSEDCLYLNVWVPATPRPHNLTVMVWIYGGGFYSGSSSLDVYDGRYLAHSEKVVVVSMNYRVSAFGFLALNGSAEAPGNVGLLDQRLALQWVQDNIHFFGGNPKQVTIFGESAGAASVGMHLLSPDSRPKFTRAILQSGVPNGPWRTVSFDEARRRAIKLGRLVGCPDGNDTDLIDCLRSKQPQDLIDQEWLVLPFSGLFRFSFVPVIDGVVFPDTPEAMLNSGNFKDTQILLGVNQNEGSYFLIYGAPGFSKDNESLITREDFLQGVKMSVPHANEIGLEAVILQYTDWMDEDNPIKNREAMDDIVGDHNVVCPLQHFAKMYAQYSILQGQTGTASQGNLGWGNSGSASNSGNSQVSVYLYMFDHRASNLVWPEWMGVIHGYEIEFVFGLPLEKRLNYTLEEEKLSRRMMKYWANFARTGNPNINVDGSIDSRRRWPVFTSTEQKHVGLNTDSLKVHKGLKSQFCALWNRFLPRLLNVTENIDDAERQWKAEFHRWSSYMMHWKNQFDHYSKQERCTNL
Chain of Cholinesterase (P81908 whole entry): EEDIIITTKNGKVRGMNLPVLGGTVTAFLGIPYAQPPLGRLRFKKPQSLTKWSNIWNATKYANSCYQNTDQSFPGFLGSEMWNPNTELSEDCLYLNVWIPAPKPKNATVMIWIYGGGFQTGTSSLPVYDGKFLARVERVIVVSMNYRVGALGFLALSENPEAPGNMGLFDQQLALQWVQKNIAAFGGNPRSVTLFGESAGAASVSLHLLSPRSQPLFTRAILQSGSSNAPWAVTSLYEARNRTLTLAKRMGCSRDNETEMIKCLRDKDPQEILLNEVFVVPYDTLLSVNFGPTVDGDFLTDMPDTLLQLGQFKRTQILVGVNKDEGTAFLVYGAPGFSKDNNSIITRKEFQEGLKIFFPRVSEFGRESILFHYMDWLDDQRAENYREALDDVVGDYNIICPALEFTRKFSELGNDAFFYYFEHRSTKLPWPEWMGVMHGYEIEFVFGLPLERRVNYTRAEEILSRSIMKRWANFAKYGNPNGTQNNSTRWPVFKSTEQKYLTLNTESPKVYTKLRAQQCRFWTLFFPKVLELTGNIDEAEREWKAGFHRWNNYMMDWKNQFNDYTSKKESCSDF

`Cn1cc[n+](CC(=O)Nc2ccc3nc4c5[nH]c6ccccc6c5ccn4c(=O)c3c2)c1`: the pIC50 was 5.13 in assay [1], 8.10 in assay [3] and below 4.00 in assay [6]. For the same compound, the Ratio in assay [2] turned out to be 15.3; in assay [5] it was 2.2. Further, in assay [4], the inhibition came to 20%.

Regarding `O=C(CC[n+]1ccccc1)Nc1ccc2nc3c4[nH]c5ccccc5c4ccn3c(=O)c2c1`, the pIC50 in assay [1] is 5.37; in assay [3], 8.64; in assay [6], below 4.00. Also, the Ratio in assay [2] was 15.3; in assay [5], 2.2. The same compound showed an inhibition in assay [4] of 20%.

`Cn1cc[n+](CCCC(=O)Nc2ccc3nc4c5[nH]c6ccccc6c5ccn4c(=O)c3c2)c1`: the negative logarithm of the IC50 (pIC50) was 5.09 in assay [1] and 7.93 in assay [3]. For the same compound, the Ratio in assay [2] was 15.3; in assay [5], 2.2. Also, the inhibition in assay [4] came out at 20%.

As for `O=C(CCCN1CCCC1)Nc1ccc2nc3c4[nH]c5ccccc5c4ccn3c(=O)c2c1`, the negative logarithm of the IC50 (pIC50) in assay [1] is 4.73; in assay [3], 7.07. Besides, the Ratio in assay [2] came to 15.3; in assay [5], 2.2. Further, in assay [4], the inhibition amounted to 20%.

Take `O=C(CCC[n+]1ccccc1)Nc1ccc2nc3c4[nH]c5ccccc5c4ccn3c(=O)c2c1`: the negative logarithm of the IC50 (pIC50) in assay [1] was 5.38; in assay [3], 8.41. Also, the Ratio in assay [2] was 15.3; in assay [5] it was 2.2. In assay [4], this compound came in with an inhibition of 20%.

Turning to `O=C(COc1cccnc1)Nc1ccc2nc3c4[nH]c5ccccc5c4ccn3c(=O)c2c1`, the pIC50 in assay [1] was 5.14; in assay [3] it was 8.51. Also, the Ratio is 15.3 in assay [2] and 2.2 in assay [5]. In addition, the inhibition in assay [4] was 20%.

Turning to `O=C(CCN1CCOCC1)Nc1ccc2nc3c4[nH]c5ccccc5c4ccn3c(=O)c2c1`, the pIC50 in assay [1] is 4.56; in assay [3], 7.10; in assay [6], 5.51. For the same compound, the figures for the Ratio in assay [2] and in assay [5] were 15.3 and 2.2, respectively. Further, the inhibition in assay [4] is 20%.

With `O=C(CCOc1cccnc1)Nc1ccc2nc3c4[nH]c5ccccc5c4ccn3c(=O)c2c1`, the pIC50 in assay [1] was 5.19; in assay [3] it was 7.84. Also, the values for the Ratio in assay [2] and in assay [5] were 15.3 and 2.2, respectively. This compound displayed an inhibition in assay [4] of 20%.

On to `COc1cc(/C=C/C(=O)CC(=O)/C=C/c2ccc(O)c(OC)c2)ccc1O` [CURCUMIN], for which the pIC50 in assay [6] was 4.45.

For `Cn1cc[n+](CCC(=O)Nc2ccc3nc4c5[nH]c6ccccc6c5ccn4c(=O)c3c2)c1`, the pIC50 in assay [1] was 5.15; in assay [3] it was 8.03; in assay [6], below 4.00. For the same compound, the figures for the Ratio in assay [2] and in assay [5] were 15.3 and 2.2, respectively. In assay [4], the inhibition was determined as 20%.

For the compound `CN1CCN(CCC(=O)Nc2ccc3nc4c5[nH]c6ccccc6c5ccn4c(=O)c3c2)CC1`, the pIC50 in assay [1] is 4.54; in assay [3] it was 6.85; in assay [6], 4.88. Besides, the Ratio in assay [2] came out at 15.3; in assay [5], 2.2. Also, the inhibition in assay [4] came to 20%.

On to `O=C(CC[n+]1cccc(F)c1)Nc1ccc2nc3c4[nH]c5ccccc5c4ccn3c(=O)c2c1`, for which the results for the negative logarithm of the IC50 (pIC50) in assay [1], in assay [3] and in assay [6] were 5.46, 8.68 and below 4.00, respectively. Besides, the Ratio in assay [2] is 15.3; in assay [5], 2.2. Further, in assay [4], the inhibition came to 20%.

As to `O=C(CCN1CCCCC1)Nc1ccc2nc3c4[nH]c5ccccc5c4ccn3c(=O)c2c1`, the pIC50 was 4.62 in assay [1], 7.29 in assay [3] and 5.30 in assay [6]. In addition, the Ratio in assay [2] stood at 15.3; in assay [5], 2.2. Besides, in assay [4], the inhibition is 20%.

Turning to `O=C(CCc1ccccc1)Nc1ccc2nc3c4[nH]c5ccccc5c4ccn3c(=O)c2c1`, the negative logarithm of the IC50 (pIC50) is 4.58 in assay [1] and 6.96 in assay [3]. For the same compound, the Ratio stood at 15.3 in assay [2] and 2.2 in assay [5]. In assay [4], this compound came in with an inhibition of 20%.

Take `O=C(CCCc1ccccc1)Nc1ccc2nc3c4[nH]c5ccccc5c4ccn3c(=O)c2c1`: the pIC50 in assay [1] is 4.61; in assay [3], 6.87. The figures for the Ratio in assay [2] and in assay [5] were 15.3 and 2.2, respectively. Further, in assay [4], the inhibition turned out to be 20%.

For `O=C(CN1CCCCC1)Nc1ccc2nc3c4[nH]c5ccccc5c4ccn3c(=O)c2c1`, the pIC50 was 4.63 in assay [1], 7.15 in assay [3] and 5.20 in assay [6]. The Ratio was found to be 15.3 in assay [2] and 2.2 in assay [5]. The compound further displayed an inhibition in assay [4] of 20%.

Regarding `O=C(CN1CCCC1)Nc1ccc2nc3c4[nH]c5ccccc5c4ccn3c(=O)c2c1`, the values for the negative logarithm of the IC50 (pIC50) in assay [1], in assay [3] and in assay [6] were 4.84, 7.23 and 5.54, respectively. For the same compound, the figures for the Ratio in assay [2] and in assay [5] were 15.3 and 2.2, respectively. The compound further showed an inhibition in assay [4] of 20%.

As to `CCN(CC)CCC(=O)Nc1ccc2nc3c4[nH]c5ccccc5c4ccn3c(=O)c2c1`, the pIC50 in assay [1] was 4.55; in assay [3] it was 7.19; in assay [6], 4.91. Also, the Ratio was determined as 15.3 in assay [2] and 2.2 in assay [5]. The same compound had an inhibition in assay [4] of 20%.

In the case of `CCN(CC)CC(=O)Nc1ccc2nc3c4[nH]c5ccccc5c4ccn3c(=O)c2c1`, the pIC50 is 4.62 in assay [1], 7.15 in assay [3] and 5.64 in assay [6]. Moreover, the Ratio in assay [2] came to 15.3; in assay [5], 2.2. This compound showed an inhibition in assay [4] of 20%.

On to `O=C(CNc1ccccc1)Nc1ccc2nc3c4[nH]c5ccccc5c4ccn3c(=O)c2c1`, for which the values for the pIC50 in assay [1] and in assay [3] were 4.60 and 7.11, respectively. In addition, the values for the Ratio in assay [2] and in assay [5] were 15.3 and 2.2, respectively. The compound further registered an inhibition in assay [4] of 20%.

Turning to `O=C(Cc1ccccc1)Nc1ccc2nc3c4[nH]c5ccccc5c4ccn3c(=O)c2c1`, the negative-log IC50 (pIC50) in assay [1] was 4.60; in assay [3] it was 6.94. Also, the Ratio in assay [2] was found to be 15.3; in assay [5], 2.2. Moreover, in assay [4], the inhibition amounted to 20%.

Regarding `CN1CCN(CC(=O)Nc2ccc3nc4c5[nH]c6ccccc6c5ccn4c(=O)c3c2)CC1`, the pIC50 in assay [1] is 4.54; in assay [3], 6.80; in assay [6], 5.07. The Ratio in assay [2] was 15.3; in assay [5], 2.2. In assay [4], this compound showed an inhibition of 20%.

In the case of `C[N+]1(CCC(=O)Nc2ccc3nc4c5[nH]c6ccccc6c5ccn4c(=O)c3c2)CCCC1`, the pIC50 in assay [1] was 4.77; in assay [3] it was 6.86; in assay [6], 4.72. Further, the Ratio in assay [2] was determined as 15.3; in assay [5], 2.2. In assay [4], the inhibition turned out to be 20%.

Regarding `CN(C)CC(=O)Nc1ccc2nc3c4[nH]c5ccccc5c4ccn3c(=O)c2c1`, the pIC50 in assay [1] is 4.58; in assay [3] it was 7.15; in assay [6], 5.39. For the same compound, the figures for the Ratio in assay [2] and in assay [5] were 15.3 and 2.2, respectively. Also, the inhibition in assay [4] amounted to 20%.

Take `O=C(CCNc1ccccc1)Nc1ccc2nc3c4[nH]c5ccccc5c4ccn3c(=O)c2c1`: the pIC50 in assay [1] was 4.56; in assay [3], 7.06. Moreover, the Ratio was 15.3 in assay [2] and 2.2 in assay [5]. In addition, the inhibition in assay [4] was determined as 20%.
